Assay results taken from patent publication US5496697A, “Methods and apparatus for detecting the effect of cell affecting agents on living cells” (priority 1993, dated 1996).
Where two headings read alike, the source gives them in different places.

What was measured:
[1] = test system: normal human keratinocytes; experiment: metabolic rate of normal human keratinocytes exposed to irritants in the micro flow chamber (silicon sensor); format: cell-based; settings: for IC50: Homo sapiens, Keratinocyte, read-out: -log10 (MRD50) (converted)
[2] = cited from earlier work
[3] = test system: murine macrophage-like line P388D1; experiment: acidification rate of P388D1 cells trapped in etched wells; format: cell-based
Method: For many types of mammalian cells, a confluent monolayer (equivalent to about 10^7 cells/mL) commonly produces acidification rates within a factor of two of 100 μV/s. At 59 mV per pH and medium buffer capacity of 1 mM, this corresponds to a calculated net rate of H+ production of ~1·10^8 /s for a typical cell. The metabolic sources of these protons depend on the nutrients in the culture medium and the metabolic pathways that are active in the cells. Some insight into this can be gained using auxiliary biochemical measurements and specific metabolic poisons.
It is reversible, with a recovery time of about 20 min. after the removal of the uncoupler. Dose-response experiments show a maximum stimulation of the acidification rate near 2-5 μM CCCP, Presumably the mechanism is a combination of increased CO2 production and the stimulation of glycolysis to maintain homeostasis.

L cells [4] = test system: L cells
L cells [5] = experiment: cells; settings: Mus musculus, 8 min, read-out: peak metabolic activity
MDCK cells [6] = experiment: metabolic rate of MDCK cells exposed to MgCl; format: cell-based, canine; settings: 10 mM MgCl
MDCK cells [7] = experiment: metabolic rate of MDCK cells grown on the silicon sensor surface; format: cell-based, canine
MDCK cells [8] = experiment: metabolic rate of MDCK cells grown on a cover slip; format: cell-based, canine; settings: for inhibition at 10000 µM: 10 mM theophylline
MES-SA [9] = settings: previously characterized; cited from earlier work
Dx5 = experiment: cytotoxicity in Dx5 in the silicon microphysiometer; settings: for time at which cytotoxicity is manifest: 100 μM, Dx5
MES-SA [10] = experiment: cytotoxicity in MES-SA in the silicon microphysiometer
PGE1 receptor = experiment: metabolic rate of M1C-2 cells stimulated through the PGE1 receptor; format: cell-based, mouse; settings: PGE1, FIG. 27
Proteus mirabilis = format: cell-based; settings: carbon source in medium; FIG. 22
Description: While this method of serial delivery of selective substrates has certain potential advantages, parallel delivery of selective substrates to separate catches of bacteria could also be useful under certain circumstances. Furthermore, if bacteria are used for screening for antibiotic susceptibility or antibiotic activity, parallel delivery to separate catches may well be more appropriate because of potential problems of intereactions of drugs.
The bacteria, E. coli and Proteus mirabilis , were prepared as suspensions of about 5×10^8 cells/mL in a growth medium and then diluted into a sterile test medium containing glucose (Bactopeptone, 2 g/L; NACl, 5 g/L; K2 HPO4, 1.7 mM; glucose, 1 g/L; pH 7.3 ). With the controlling electrode piston in the raised position, as disclosed in pending U.S. patent application, Ser. No. 876,925, filed Jun. 20, 1986, now U.S. Pat. No. 5,292,846 one mL of bacterial suspension containing a known number of bacteria was flowed through the device such that the cells were retained adjacent to the silicon sensor surface by a Nucleopore membrane situated parallel to the surface. The cells were pulsed with the same glucose containing test medium, the piston was then lowered to decrease the volume surrounding the cells, and the change in pH due to bacterial metabolism was monitored. […] After lowering the piston the pH change was again monitored. […]

E. coli = experiment: response of E. coli to antibiotics in the flow cell; format: cell-based; settings: FIG. 24
MDCK cells [11] = experiment: steady-state potential of MDCK cells grown on the silicon sensor surface; format: cell-based, canine
Description: It contains information on the pH of the small aqueous compartment between the cells and the sensor, and it contains information about trans-cellularpotentials, which are essentially batteries in series with the electronic circuit of the sensor.
The steadystate potential reported by the sensor (with fluid flow on) decreased gradually from the time the sensor was activated until the PMA was introduced. […] This signal is a composite of the trans-cellular potential and the sub-cellular pH (changes in the latter corresponding to 59 mV per pH unit).

MDCK cells [12] = experiment: cells; settings: Canis lupus familiaris
Method: MDCK cells in a confluent T-75 flask were trypsinized in order to remove them from their growth container. The cells were centrifuged at 2000 RPM for 5 minutes and the supernatant was discarded. The cells were resuspended in 5 mL of medium and centrifuged for 5 minutes at 3000 RPM. […] The cells were centrifuged for 3 minutes at 3000 RPM to pellet the cells. A 2 μL aliquot was taken directly from the cell pellet and spread over an approximate area of 40 mm^2 on the silicon sensor surface (in a partially assembled chamber).

[13] = concentrations necessary to depress metabolism of keratinocytes
[14] = classification by in vivo tests such as the Draize test

## benzalkonium chloride [Benzalkonium Cl]
[1]; 30 μg/ml
  decrease of cellular metabolic rate between two successive administrations: real decrease of cellular metabolic rate between the two administrations
[1]; FIG. 12
  recovery of metabolic rate after washout of irritant: no recovery was obtained
[1]; [13]
  -log10 (MRD50): 4.1
[2]; [14]
  In-Vivo Irritancy: Severe

## CC(O)CO (stereo not drawn) [Propylene glycol]
[2]; in vivo
  In-Vivo Irritancy: Mild

## CO [Methanol]
[2]; [14]
  In-Vivo Irritancy: Moderate-mild

## N#CC(C#N)=NNc1cccc(Cl)c1 [CCCP, carbonylcyanide chlorophenylhydrazone]
[3]; 20 μmM CCCP
  recovery time after removal of the uncoupler: about 20 min.
[3]; 20 μmM CCCP, FIG. 42
  stimulation of acidification rate: prompt, faster than the resolution of the apparatus
[3]; dose-response experiments
  concentration of maximum stimulation of the acidification rate: 2 to 5 µM

## CC(C)=O [Acetone]
[2]; [14]
  In-Vivo Irritancy: Moderate-mild

## CC(C)[C@@H]1NC(=O)[C@H](C)OC(=O)[C@@H](C(C)C)NC(=O)[C@@H](C(C)C)OC(=O)[C@H](C(C)C)NC(=O)[C@H](C)OC(=O)[C@@H](C(C)C)NC(=O)[C@@H](C(C)C)OC(=O)[C@H](C(C)C)NC(=O)[C@H](C)OC(=O)[C@@H](C(C)C)NC(=O)[C@@H](C(C)C)OC1=O [valinomycin]
L cells [4]
  peak metabolic rate relative to the initial rate: more than double the initial rate
  time of return of metabolic activity approximately to the initial value: ≤ 20 min
  time to peak of metabolic activity: four
L cells [5]
  fold induction at 100 µM: ~2.4

## [Cl-].[Cl-].[Mg+2] [MgCl, magnesium chloride]
MDCK cells [6]
  increase in metabolic rate vs. medium only: 40-46%

## CCCCCCCCCCCCOS(=O)(=O)[O-].[Na+] [Na dodecyl sulfate, sodium dodecyl sulfate]
[1]
  IC50: 0.126 mM
[2]; [14]
  In-Vivo Irritancy: Severe-moderate

## Cn1c(=O)c2[nH]cnc2n(C)c1=O [theophylline]
MDCK cells [7]; Canis lupus familiaris, MDCK, read-out: increase in metabolic rate vs. control values on removal, after 111 μM theophylline
  activation at 111 µM: 28%
MDCK cells [7]; Canis lupus familiaris, MDCK, 111 μM theophylline (therapeutic level), read-out: decrease in metabolic rate
  inhibition at 111 µM: ~10%
MDCK cells [7]; Canis lupus familiaris, MDCK, 10 mM theophylline, read-out: decrease in metabolic rate vs. control value
  inhibition at 10000 µM: 47%
MDCK cells [7]; after removal of 10 mM theophylline
  time of return of metabolic rate to the control value: ten
MDCK cells [8]; Canis lupus familiaris, MDCK, initial, read-out: decrease in metabolic rate
  inhibition at 10000 µM: 59%
MDCK cells [8]; Canis lupus familiaris, MDCK, read-out: metabolic rate below the control value after gradual increase
  inhibition at 10000 µM: 48%
MDCK cells [8]; Canis lupus familiaris, MDCK, after 10 mM theophylline, read-out: increase of metabolic rate over the control value on removal
  activation at 10000 µM: 30%

## COc1cccc2c1C(=O)c1c(O)c3c(c(O)c1C2=O)C[C@@](O)(C(=O)CO)C[C@@H]3O[C@H]1C[C@H](N)[C@H](O)[C@H](C)O1 [doxorubicin]
MES-SA [9]
  sensitivity of MES-SA: sensitive
Dx5; 1 μM doxorubicin, Dx5, FIG. 45
  time at which decreased acidification rates are evident: > 50 h
Dx5
  time at which cytotoxicity is manifest: 2.5 h
MES-SA [10]; 1 μM doxorubicin, FIG. 45
  time at which decreased acidification rates are evident: 15 h
MES-SA [10]; 100 μM
  time at which cytotoxicity is manifest: 0.5 h

## CCCCC[C@H](O)/C=C/[C@H]1[C@H](O)CC(=O)[C@@H]1CCCCCCC(=O)O [PGE1, prostaglandin E1]
PGE1 receptor
  increase in metabolic rate at peak: 80%
  time of peak: approximately 1000 seconds
  time of return to base line metabolic rates: 4000 s

## CCCCO [n-Butanol, 1-butanol]
[1]; [13]
  IC50: 20 mM
[2]; [14]
  In-Vivo Irritancy: Moderate

## CCO [Ethanol]
[1]; FIG. 12
  recovery of metabolic rate after washout of irritant: substantial recovery
[1]; separate test, FIG. 13
  recovery of metabolic rate after washout of irritant: not from ethanol
[2]; [14]
  In-Vivo Irritancy: Moderate-mild

## CC[C@H](C)[C@@H]1NC(=O)[C@H](Cc2ccc(O)cc2)NC(=O)[C@@H](N)CSSC[C@@H](C(=O)N2CCC[C@H]2C(=O)N[C@@H](CC(C)C)C(=O)NCC(N)=O)NC(=O)[C@H](CC(N)=O)NC(=O)[C@H](CCC(N)=O)NC1=O [oxytocin]
MDCK cells [8]
  immediate change in metabolic rate: did not result in any immediate change
  recovery of metabolic rate after removal: 100%
  time to full recovery of metabolic rate after removal: up to 10 minutes
MDCK cells [8]; mdck, 1 µM
  gradual decrease of metabolic rate: up to 10%

## O=C[C@H](O)[C@@H](O)[C@H](O)[C@H](O)CO [glucose]
Proteus mirabilis
  change of pH: decreased the pH

## CC[C@]1(O)C[C@H]2CN(CCc3c([nH]c4ccccc34)[C@@](C(=O)OC)(c3cc4c(cc3OC)N(C=O)[C@H]3[C@@](O)(C(=O)OC)[C@H](OC(C)=O)[C@]5(CC)C=CCN6CC[C@]43[C@@H]65)C2)C1 [vincristine]
MES-SA [9]
  sensitivity of MES-SA: sensitive
Dx5
  time at which cytotoxicity is manifest: 10 h
MES-SA [10]; 100 μM vincristine, FIG. 46
  time at which cytotoxicity is manifest: 5 h

## NC(=O)CC[C@@H]1NC(=O)[C@H](Cc2ccccc2)NC(=O)[C@H](Cc2ccc(O)cc2)NC(=O)[C@@H](N)CSSC[C@@H](C(=O)N2CCC[C@H]2C(=O)N[C@@H](CCCN=C(N)N)C(=O)NCC(N)=O)NC(=O)[C@H](CC(N)=O)NC1=O [vasopressin]
MDCK cells [7]
  increase in metabolic rate over control values: 14%
  increase in metabolic rate over the rate in 0.1 μM vasopressin: 19%
  increase over the control rate value: 42%
MDCK cells [8]
  increase in metabolic rate: no increase in metabolic rate was observed

## CC1(C)S[C@@H]2[C@H](NC(=O)Cc3ccccc3)C(=O)N2[C@H]1C(=O)O [penicillin]
E. coli
  response to antibiotic: do not respond

## CCCCCCCCCCCCCC(=O)O[C@@H]1[C@@H](C)[C@@]2(O)[C@@H](C=C(CO)C[C@]3(O)C(=O)C(C)=C[C@@H]23)[C@@H]2C(C)(C)[C@]12OC(C)=O [PMA, Phorbol myristate acetate]
MDCK cells [7]; 10 ng/ml PMA
  rise in metabolic rate at the peak: more than a doubling
  time of peak of metabolic rate: near an hour later
MDCK cells [8]; cover slip, data not shown
  metabolic rate upon addition of PMA: increase in metabolic rate
MDCK cells [11]; 10 ng/ml PMA
  steady-state potential reported by the sensor: dropped quickly to a minimum
  time to minimum of steady-state potential: about forty
MDCK cells [11]; by the end of the experiment
  steady-state potential after removal of PMA: returned to a value near its initial one

## polymyxin
E. coli
  response to antibiotic: do respond

## C[S+](C)[O-] [Dimethyl sulfoxide]
[1]; separate test, FIG. 13
  recovery of metabolic rate after washout of irritant: recover from DMSO but not from ethanol was shown
[2]; in vivo
  In-Vivo Irritancy: Mild

## N=C(N)NC(=O)c1nc(Cl)c(N)nc1N [amiloride]
MDCK cells [7]; Canis lupus familiaris, MDCK, 1.5 mM amiloride, immediate, read-out: decrease in apparent metabolic rate vs. medium only
  inhibition at 1500 µM: 20%
MDCK cells [8]; Canis lupus familiaris, MDCK, 1.5 mM amiloride, gradual, read-out: increase of metabolic rate above medium only
  activation at 1500 µM: ≤ 16%
MDCK cells [8]; after 1.5 mM amiloride
  metabolic rate after exposure was ceased: returned to the original control value and then gradually continued to decline

## CNC[C@H](O)c1ccc(O)c(O)c1 [epinephrine]
MDCK cells [7]; Canis lupus familiaris, MDCK, read-out: additional increase in metabolic rate on re-exposure
  activation at 3 µM: 7%
MDCK cells [7]; Canis lupus familiaris, MDCK, read-out: increase in metabolic rate
  activation at 3 µM: 20%
MDCK cells [7]; Canis lupus familiaris, MDCK, read-out: increase in metabolic rate over the control rate on re-exposure
  activation at 3 µM: 20%
MDCK cells [7]; Canis lupus familiaris, MDCK, read-out: metabolic rate above control rate after removal
  activation at 3 µM: 12%
MDCK cells [12]; read-out: decrease in metabolic rate vs. medium only
  inhibition at 208 µM: 3%
MDCK cells [12]; read-out: decrease in metabolic rate vs. rate immediately after removal of the higher concentration
  inhibition at 3 µM: 4.5%

## NC(N)=O [urea]
Proteus mirabilis
  change of pH: increases the pH
